Measurements reported in ChEMBL document CHEMBL5303304, “EUbOPEN Chemogenomics Library - IncuCyte” (2023).
Several values for one entry are separate records, joined by “and”; a condition that tells them apart may be missing. Identical values can stand only once.

Key:
Assay type in all cases: toxicity, cell-based
U2OS = experiment: Incucyte cell viability with U2OS; conditions: human, 10 µM, compound concentration 10 uM
HEK-293T = experiment: Incucyte cell viability with HEK293T; conditions: human, 10 µM, compound concentration 10 uM
Fibroblast = experiment: Incucyte cell viability with human fibroblast; conditions: 10 µM, compound concentration 10 uM
Note: unitless GR value; below 1 slowed growth and below 0 cell loss.

| Structure (SMILES) | Growth Rate (U2OS; 0 h, replicate number 2) | Growth Rate (U2OS; 6 h, replicate number 1) | Growth Rate (U2OS; 6 h, replicate number 2) | Growth Rate (U2OS; 12 h, replicate number 1) | Growth Rate (U2OS; 12 h, replicate number 2) | Growth Rate (U2OS; 18 h, replicate number 1) | Growth Rate (U2OS; 18 h, replicate number 2) | Growth Rate (U2OS; 24 h, replicate number 1) | Growth Rate (U2OS; 24 h, replicate number 2) | Growth Rate (HEK-293T; 0 h, replicate number 1) | Growth Rate (HEK-293T; 0 h, replicate number 2) | Growth Rate (HEK-293T; 6 h, replicate number 2) | Growth Rate (HEK-293T; 12 h, replicate number 2) | Growth Rate (HEK-293T; 18 h, replicate number 1) | Growth Rate (HEK-293T; 18 h, replicate number 2) | Growth Rate (HEK-293T; 24 h, replicate number 2) | Growth Rate (Fibroblast; 0 h, replicate number 2) | Growth Rate (Fibroblast; 6 h, replicate number 2) | Growth Rate (Fibroblast; 12 h, replicate number 2) | Growth Rate (Fibroblast; 18 h, replicate number 2) | other results |
| --- | --- | --- | --- | --- | --- | --- | --- | --- | --- | --- | --- | --- | --- | --- | --- | --- | --- | --- | --- | --- | --- |
| CC[C@H](CC(=O)O)n1c(=O)c2ncccc2n(Cc2cn(C)c3cc(C)cc(C)c23)c1=O [BI-1942] | 0.8 | 0.25 and 0.31 | 0.74 | 0.47 and 0.65 | 0.71 and 0.98 | 0.61 and 0.75 | 0.84 | 0.67 and 0.73 | 0.61 | 0.52 | -0.53 | 0.45 | 0.58 | 0.94 | 0.52 | 0.65 | 0 | 0.23 and 0.17 | 0.64 and 0.67 | 0.58 | Growth Rate (U2OS; 0 h, replicate number 1): 0.47 and 0.69; Growth Rate (Fibroblast; 6 h, replicate number 1): 0.14; Growth Rate (Fibroblast; 12 h, replicate number 1): 0.83 and 0.8; Growth Rate (Fibroblast; 18 h, replicate number 1): 0.75 and 0.86; Growth Rate (Fibroblast; 24 h, replicate number 1): 0.7 and 1; Growth Rate (Fibroblast; 24 h, replicate number 2): 0.86 and 0.92 |
| Cn1c(C2(NC(=O)c3ccc4c(C5CCCC5)c(-c5ncc(Br)cn5)n(C)c4c3)CCC2)nc2ccc(/C=C/C(=O)[O-])cc21.[Na+] [DELEOBUVIR SODIUM] |  |  |  |  | 0.79 |  | 0.92 |  | 0.93 | 0.69 | 0.32 |  |  | 0.92 | 0.81 | 0.8 | -0.22 | -0.13 |  |  | Growth Rate (HEK-293T; 24 h, replicate number 1): 0.94 |
| CCO[C@@H](Cc1ccc(OCCc2ccc(OS(C)(=O)=O)cc2)cc1)C(=O)O [TESAGLITAZAR] | 0.8 |  | 0.99 |  |  | 0.98 |  | 0.87 |  | 0.24 | -0.46 | 0.96 | 0.68 |  | 0.85 | 0.7 | 0.24 | 0.72 | 0.56 | 0.87 | Growth Rate (HEK-293T; 6 h, replicate number 1): 1; Growth Rate (Fibroblast; 0 h, replicate number 1): 0.92; Growth Rate (Fibroblast; 6 h, replicate number 1): 0.95; Growth Rate (Fibroblast; 18 h, replicate number 1): 0.64; Growth Rate (Fibroblast; 24 h, replicate number 1): 0.99 |
| CCN1CCN(Cc2ccc(NC(=O)c3ccc(C)c(NC(=O)c4cncc(-c5cccs5)c4)c3)cc2C(F)(F)F)CC1 | -0.23 | -0.87 | -0.47 | -0.52 | -0.42 | -0.59 | -0.53 | -0.6 | -0.55 |  |  | -0.99 | -0.83 | -0.73 | -0.61 | -0.41 | -0.99 | -1 | -0.76 | -0.54 | Growth Rate (U2OS; 0 h, replicate number 1): -0.74; Growth Rate (HEK-293T; 6 h, replicate number 1): -0.97; Growth Rate (HEK-293T; 12 h, replicate number 1): -0.9; Growth Rate (HEK-293T; 24 h, replicate number 1): -0.6; Growth Rate (Fibroblast; 18 h, replicate number 1): -0.92; Growth Rate (Fibroblast; 24 h, replicate number 1): -0.74; Growth Rate (Fibroblast; 24 h, replicate number 2): -0.41 |
| NC(=O)c1ccc(-c2nc(-c3ccc4c(c3)OCCO4)c(-c3ccccn3)[nH]2)cc1 |  | 0.21 |  | 0.58 | 0.94 | 0.55 | 0.86 | 0.5 | 0.75 |  |  | 0.65 | 0.81 | 0.8 | 0.74 | 0.86 | -0.85 | 0.41 | 0.45 | 0.63 | Growth Rate (HEK-293T; 6 h, replicate number 1): 0.37; Growth Rate (HEK-293T; 12 h, replicate number 1): 0.76; Growth Rate (HEK-293T; 24 h, replicate number 1): 0.79; Growth Rate (Fibroblast; 0 h, replicate number 1): -1; Growth Rate (Fibroblast; 12 h, replicate number 1): 0.77; Growth Rate (Fibroblast; 24 h, replicate number 2): 0.74 |
